Results: PubChem BioAssay AID651717 (Broad Institute, 2012)

Test system: mESC Bmi1-luciferase reporter, firefly/renilla ratio, 24 h
Test: Bmi1-luciferase reporter activators in mESC, dose response, esBAF inhibitor project, mouse embryonic stem cells, cherry-pick (AID 651717);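 also: luciferase knocked into Bmi1 locus with EF-1a renilla as cell number control; rising ratio signals esBAF inhibition which derepresses Bmi1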

SMILES	AC40 [µM]
COc1cc(/C=C/c2ccccc2)cc(OC)c1	2.93
COc1ccc(-c2cc(C(=O)Nc3cccnc3)no2)cc1OC	4.87
Cc1ccc(C2/C(=C(/O)c3cnn(-c4ccccc4)c3C)C(=O)C(=O)N2CCN2CCOCC2)o1 (stereo not given)	8.69
Nc1nc(-c2ccc(Oc3ccccc3)cc2)cs1	7.87
Nc1cc2c3ccccc3ccc2c2ccccc12	2.47
O=C(NCCc1ccc(F)cc1)c1ccc2c(=O)n3c(nc2c1)CCC3	5.89
O=C1/C(=C/c2cccc3ccccc23)CCCc2ccccc21	5.34
Cc1cc2oc(=O)cc(CN3CCC(C)CC3)c2cc1Cl	9.54
COc1ccc(/C=N/NC(=O)Cc2cccs2)cc1	8.51
O=C(N/N=C/c1ccc(Cl)cc1)Nc1ccccc1	5.34
Cc1ccn2cc(C(=O)Nc3nnc(C)s3)nc2c1	1.17
O=C(Nc1ccccn1)c1ccc(Cl)c(S(=O)(=O)N2CCCCCC2)c1	10.4
O=C(Cc1c(O)c2ccccc2oc1=O)c1ccc(F)cc1	2
O=C(O)CCc1ccc(-c2ccc(Br)cc2)n1-c1cccc(O)c1	10.8
C=CCN(C(=O)CC(NC(C)=O)c1ccccc1)c1nc(-c2ccc(S(C)(=O)=O)cc2)cs1 (stereo not given)	0.992
COC(=O)C(Cc1ccc(OC(=O)c2ccc(Cl)cc2)cc1)N1Cc2ccccc2C1=O (stereo not given)	3.13
COc1ccc(CNc2nc3ccccc3s2)cc1OC	3.7
CN(C)c1ccc(-c2ccc3oc(-c4ccsc4)cc(=O)c3c2)cn1	2.73
COc1ccc(NC(=O)O/N=C/c2ccccc2)cc1	5.24
O=C(CC(=O)c1ccccc1)Nc1ccccc1	3.94

SMILES	AC40 [µM]
O=C1C(=Cc2ccccn2)CCc2ccccc21	20.1
C=CCNc1nc(Cl)nc(Nc2ccccc2)n1	0.936
N#CCc1ccc(OC(=O)c2cccnc2Cl)cc1	15.7
Cc1csc(NC(=O)Cc2ccc(F)cc2)n1	7.58
CO[C@@H]1CN(C)C(=O)c2cc(NC(=O)c3nc4ccccc4s3)ccc2OC[C@@H](C)N(Cc2cccnc2)C[C@H]1C	19.8
O=C(Nc1ccc(F)cc1F)NC1CCCCCCC1	5.14
COc1ccc2nc3ccccc3[n+]([O-])c2c1	2.1
Nc1ccc(C(=O)OCc2nc3ccccc3[nH]2)cc1	19.1
CCCc1nc2c3ccccc3ccn2c1Cc1ccc(C)cc1	0.443
Oc1ccc(-c2cccc(-c3ccc(O)cc3)c2)cc1	6.78
Fc1ccc2cc(-c3ccsc3)ncc2c1	3.16
COc1ccc2c(c1OC)C(=O)OC2Nc1nc(-c2cc3cc(Br)ccc3oc2=O)cs1 (stereo not given)	1.25
Cc1cc(C)cc(N(CC(=O)Nc2ccc(-c3nc4ccc(C)cc4s3)cc2)S(C)(=O)=O)c1	4.11
CC1CCc2c(sc(NC(=O)c3cccn3C)c2C(N)=O)C1 (stereo not given)	3.63
C=CCNc1nc(-c2ccc(O)c(C(N)=O)c2)cs1	6.2
Cn1c2ccccc2c(=O)c2cc(C#Cc3ccsc3)ccc21	1.08
Cc1ccc(CNC(=O)C2CCC(=O)N(CCc3ccc(Cl)cc3)C2)cc1 (stereo not given)	5.36
CO[C@@H]1CN(C)C(=O)c2ccc(NC(=O)Nc3ccc4c(c3)OCO4)cc2OC[C@H](C)NC[C@@H]1C	5
COc1ccc(CNC(=O)COc2ccccc2C(=O)c2cnn(-c3ccccc3)c2)cc1OC	0.642
O=C(NCC1CC1)Nc1ccc(Cl)cc1	15.5

SMILES	AC40 [µM]
CO[C@@H]1CN(C)C(=O)c2cc(NC(=O)Nc3ccc4c(c3)OCO4)ccc2OC[C@H](C)NC[C@@H]1C	6.97
COC(=O)c1c(-c2ccc(SC)cc2)sc2ccccc12	14.3
CC(=O)c1cccc(OCc2cc(C(=O)NCCC3=CCCCC3)no2)c1	1.23
COc1cccc(NC(=O)N2CCc3nc(Nc4ccc(C(C)C)cc4)ncc3C2)c1	29.9
O=c1oc(-c2ccccc2)cc2ccccc12	3.89
CN(C)c1ccc(N=Nc2ccccc2C(=O)OCC(=O)Nc2ccccc2C(F)(F)F)cc1	4.61
O=C(Nc1cccc(O)c1)c1ccc(Br)c(S(=O)(=O)N2CCCCC2)c1	17.6
CSc1cccc(NC(=O)N2CCc3ccc(NC(=O)c4ccccn4)cc3C2)c1	4.23
Cc1cccc(N/N=C/c2ccc(C)s2)c1	2.91
COc1ccc(NC(=O)c2cc(-c3ccccc3Cl)on2)cc1	11.8
COc1ccccc1CNC(=O)C[C@@H]1CC[C@@H]2[C@H](COC[C@H](O)CN2C(=O)Nc2ccc(Cl)cc2)O1	1.36
Cc1ccc(OCc2cc(C(=O)NC(C)Cc3cccnc3)no2)cc1C (stereo not given)	1.8
O=C(c1noc2c1CCCC2)N1CCc2ccccc2C1	2.99
Cc1ccc(CNc2cccnc2)cc1	25.7
COc1ccc2oc3cc(Cl)ccc3c(=O)c2c1	2.85
O=C(c1c(Cl)nc2sccn12)N(C(=O)c1c(Cl)nc2sccn12)c1ccc(Cl)cn1	0.693
O=C(CC(NC(=O)OCc1ccccc1)c1nn[nH]n1)OCc1ccccc1 (stereo not given)	2.6
CCn1cnc2cc(NCc3ccc(OC)cc3)ccc21	0.992
Cc1ccc(C(=O)NCCc2nnc(SCC(=O)Nc3nc(-c4ccccc4)cs3)n2C)cc1	17.2
O=C1CCCc2cc3c(ccc4ccccc43)cc21	3.18
